US7217831B2 (priority 2001, dated 2007)

What was measured:
[1] = test system: Helicoverpa armigera larvae; test: Glasshouse trial on geranium seedlings, racemic and isomeric C1 (Example 20); format: in vivo; settings: Trial 1; 25 mM dose sprayed on geranium
[2] = test system: Helicoverpa spp. larvae; test: Field trial, commercial cotton crop, Kununurra (Example 19); format: in vivo, Helicoverpa armigera; settings: C1 plus EDTA 1.0 kg/ha each

Row | Structure (SMILES) | Estimated leaf damage (%) at 7 DAA [1] | Mean number of larvae/leaf at 7 DAA [1] | Mean number TLVA*/10 Terminals, 3 DAA ([2]; 3 days after application, C1 2.0 kg/ha, EDTA 2.0 kg/ha) | efficacy against Helicoverpa spp. infesting cotton (in words) ([2]; EDTA alone 2.0 kg/ha) | Mean number TLVA*/10 Terminals, −1 DAA ([2]; pre-application count, C1 2.0 kg/ha, EDTA 2.0 kg/ha)
1 | CC(C)[C@H](NCP(=O)(O)O)C(=O)O [D-C1, N-phosphonomethyl valine] | 55% | 3.5 |  |  | 
2 | O=C(O)CN(CCN(CC(=O)O)CC(=O)O)CC(=O)O [EDTA, ethylenediaminetetraacetic acid] |  |  | 6.0 | no apparent influence on larval survival | 0.0
3 | CC(C)[C@H](NCP(=O)(O)O)C(=O)O [L-C1, N-phosphonomethyl valine] | 35% | 2.3 |  |  | 
